Active and inactive are the calls of the source. No cut-off for these calls is given here.
Assays:
SMMC-7721 = experiment: Growth inhibition of human SMMC7721 cells after 48 hrs by MTT assay; assay type: functional, cell-based; conditions: SMMC-7721, 48 h
K562 = experiment: Growth inhibition of human K562 cells after 48 hrs by MTT assay; assay type: functional, cell-based; conditions: K562, 48 h
HepG2 = experiment: Growth inhibition of human HepG2 cells after 48 hrs by MTT assay; assay type: functional, cell-based; conditions: HepG2, 48 h
HCT-116 [1] = experiment: Growth inhibition of human HCT116 cells after 48 hrs by MTT assay; assay type: functional, cell-based; conditions: HCT-116, 48 h
CT26 [2] = experiment: Growth inhibition of mouse CT26 cells after 24 hrs by MTT assay; assay type: functional, cell-based
HCT-116 [3] = experiment: Downregulation of beta-catenin protein expression in human HCT116 cells at 10 uM after 24 hrs by Western blot method; assay type: functional, cell-based
HCT-116 [4] = experiment: Growth inhibition of human HCT116 cells after 24 hrs by MTT assay; assay type: functional, cell-based
HCT-116 [5] = experiment: Induction of apoptosis in human HCT116 cells assessed as early apoptotic cells at 10 uM after 24 hrs by annexin V-FITC/propidium iodide staining based flow cytometry (reference value: 4.1%); assay type: functional
CT26 [6] = experiment: Induction of apoptosis in mouse CT26 cells assessed as necrotic cells at 10 uM after 24 hrs by annexin V-FITC/propidium iodide staining based flow cytometry (reference value: 4.36%); assay type: functional
CT26 [7] = experiment: Induction of apoptosis in mouse CT26 cells assessed as live cells at 10 uM after 24 hrs by annexin V-FITC/propidium iodide staining based flow cytometry (reference value: 89.47%); assay type: functional
HCT-116 [8] = experiment: Induction of apoptosis in human HCT116 cells assessed as late apoptotic cells at 10 uM after 24 hrs by annexin V-FITC/propidium iodide staining based flow cytometry (reference value: 2.03%); assay type: functional
HCT-116 [9] = experiment: Induction of apoptosis in human HCT116 cells assessed as necrotic cells at 10 uM after 24 hrs by annexin V-FITC/propidium iodide staining based flow cytometry (reference value: 3.9%); assay type: functional
CT26 [10] = experiment: Antimigratory activity against mouse CT26 cells at 10 uM after 24 hrs by crystal violet staining based transwell assay; assay type: functional, cell-based
CT26 [11] = experiment: Antimetastatic activity against mouse CT26 cells implanted in Balb/c mouse assessed as inhibition of pulmonary metastasis nodules at 5 mg/kg, iv for 7 consecutive days starting from day 8 post tumor implantation measured on day 15 post tumor implantation relative to control; assay type: functional
CT26 [12] = experiment: Induction of apoptosis in mouse CT26 cells assessed as late apoptotic cells at 10 uM after 24 hrs by annexin V-FITC/propidium iodide staining based flow cytometry (reference value: 2.26%); assay type: functional
CT26 [13] = experiment: Antitumor activity against mouse CT26 cells implanted in Balb/c mouse assessed as solid tumor growth inhibition at 5 mg/kg, iv for 14 consecutive days measured on day 15 relative to control; assay type: functional; conditions: 360 h, read-out: TGI
Mus musculus [14] = experiment: Toxicity in Balb/c mouse implanted with mouse CT26 cells assessed as changes in body weight at 5 mg/kg, iv for 7 consecutive days starting from day 8 post tumor implantation; assay type: organism-based; conditions: in vivo
HCT-116 [15] = experiment: Downregulation of MMP2 protein expression in human HCT116 cells at 10 uM after 24 hrs by Western blot method; assay type: functional, cell-based
HCT-116 [16] = experiment: Induction of apoptosis in human HCT116 cells assessed as live cells at 10 uM after 24 hrs by annexin V-FITC/propidium iodide staining based flow cytometry (reference value: 89.97%); assay type: functional
HCT-116 [17] = experiment: Antimigratory activity against human HCT116 cells at 10 uM after 24 hrs by crystal violet staining based transwell assay; assay type: functional, cell-based
Mus musculus [18] = experiment: Toxicity in Balb/c mouse implanted with mouse CT26 cells assessed as changes in body weight at 5 mg/kg, iv for 14 consecutive days starting from day 8 post tumor implantation; assay type: organism-based; conditions: in vivo
CT26 [19] = experiment: Induction of apoptosis in mouse CT26 cells assessed as early apoptotic cells at 10 uM after 24 hrs by annexin V-FITC/propidium iodide staining based flow cytometry (reference value: 3.91%); assay type: functional

| SMILES | IC50 (SMMC-7721) | IC50 (K562) | IC50 (HepG2) | IC50 (HCT-116 [1]) | other results |
| --- | --- | --- | --- | --- | --- |
| CCCCN1C(=O)c2cccc3c(NC(=O)CNCCCCNCCCCN)ccc1c23 | 23.3 µM | > 50 µM | 21.9 µM | > 50 µM | – |
| CCCCN1C(=O)c2cccc3c(NC(=O)CNCCCCNCCCCNCCCCN)ccc1c23 | 18 µM | > 50 µM | 16.1 µM | > 50 µM | – |
| CN(C)CCN1C(=O)c2cccc3cc(N)cc(c23)C1=O [AMONAFIDE] | 10.3 µM | 20.1 µM | 11.7 µM | 7.18 µM | growth inhibition (GI) (CT26 [2]): Dose-dependent effect; IC50 (CT26 [2]; CT26, 24 h): 11.7 µM; Activity (HCT-116 [3]): Active; growth inhibition (GI) (HCT-116 [4]): Dose-dependent effect; IC50 (HCT-116 [4]; HCT-116, 24 h): 8.55 µM; Activity (HCT-116 [5]): 14.9%; Activity (CT26 [6]): 3.92%; Activity (CT26 [7]): 48.49%; Activity (HCT-116 [8]): 36.9%; Activity (HCT-116 [9]): 7.6%; Activity (CT26 [10]): Active; inhibition in vivo at 5 mg/kg (CT26 [11]): 66%; Activity (CT26 [12]): 20.3%; inhibition in vivo at 5 mg/kg (CT26 [13]): 20%; Activity (Mus musculus [14]): Non-Toxic; Activity (HCT-116 [15]): Active; Activity (HCT-116 [16]): 40.53%; Activity (HCT-116 [17]): Active; Activity (Mus musculus [18]): Non-Toxic; Activity (CT26 [19]): 27.2% |
| CCCCN1C(=O)c2cccc3c(NC(=O)CNCCCNCCCNCCCN)ccc1c23 | > 50 µM | > 50 µM | > 50 µM | > 50 µM | – |
| CCCCN1C(=O)c2cccc3c(CNCCCNCCCN)ccc1c23 | 5.59 µM | 23.5 µM | 3.27 µM | 28.3 µM | – |
| CCCCN1C(=O)c2cccc3c(NC(=O)CNCCCCN)ccc1c23 | > 50 µM | > 50 µM | > 50 µM | > 50 µM | – |
| NCCCCNCCCCN1C(=O)c2cccc3cccc1c23 | 43.9 µM | > 50 µM | > 50 µM | > 50 µM | – |
| NCCCNCCCNCCCN1C(=O)c2cccc3cccc1c23 | 19.4 µM | 26.1 µM | 14.6 µM | 12 µM | – |

Now from value to molecule, other results behind:

| IC50 (SMMC-7721) | IC50 (K562) | IC50 (HepG2) | IC50 (HCT-116 [1]) | SMILES | other results |
| --- | --- | --- | --- | --- | --- |
| > 50 µM | > 50 µM | > 50 µM | > 50 µM | CCCCN1C(=O)c2cccc3c(NC(=O)CNCCCNCCCN)ccc1c23 | – |
| 26.1 µM | 28.7 µM | 25.4 µM | 11.1 µM | NCCCNCCCCNCCCN1C(=O)c2cccc3cccc1c23 | – |
| 25.4 µM | > 50 µM | 10.1 µM | 16.9 µM | CCCCN1C(=O)c2cccc3c(CNCCCCN)ccc1c23 | – |
| 19.4 µM | 11.5 µM | > 50 µM | 16.9 µM | NCCCNCCCN1C(=O)c2cccc3cccc1c23 | – |

Source: ChEMBL document CHEMBL4130638, “Discovery of the Polyamine Conjugate with Benzo[ cd]indol-2(1 H)-one as a Lysosome-Targeted Antimetastatic Agent” (J Med Chem, 2018)
